Reference: US20210324092A1, “MONOCLONAL ANTIBODY COMPOSITION FOR TREATMENT OF PHILADELPHIA CHROMOSOME POSITIVE ACUTE LYMPHOBLASTIC LEUKEMIA” (priority 2018, published 2021)

Test system: BCR-ABL+ pre-B cells
Experiment: Rescue of BCR-ABL+ pre-B cells from imatinib-induced cell death; cell cycle analysis (FIGS. 6 and 7)
Type: cell-based, mice
Details: for effect on BCR-ABL inhibitor (imatinib)-induced cell death: Imatinib 1 μM, IL7 2.5 ng/ml, CXCL12 100 ng/ml, AMD3100 10 μM

Molecule	effect on BCR-ABL inhibitor (imatinib)-induced cell death	cell cycling under imatinib treatment (imatinib in the presence of IL7)
c1cc(CN2CCCNCCNCCCNCC2)ccc1CN1CCCNCCNCCCNCC1 [AMD3100, reference compound]	did not affect imatinib treatment	
TSLP: the ligand for CRLF2	did not affect imatinib treatment	
IL7: interleukin 7, a cytokine which is important for B and T cell development (protein, UniProt P13232 26-177, looked up) Interleukin-7: DCDIEGKDGKQYESVLMVSIDQLLDSMKEIGSNCLNNEFNFFKRHICDANKEGMFLFRAARKLRQFLKMNSTGDFDLHLLKVSEGTTILLNCTGQVKGRKPAALGEAQPTKSLEENKSLKEQKKLNDLCFLKRLLQEIKTCWNKILMGTKEH	counteracted the BCR-ABL inhibitor-induced cell death	restored cell cycling
